Experimental data taken from US20260109714A1, “PYRIMIDINE-FUSED RING COMPOUND, AND PREPARATION METHOD THEREFOR AND USE THEREOF” (GENFLEET THERAPEUTICS (SHANGHAI) INC., priority 2022, published 2026).

Columns and labels:
AGS p-ERK = assay: Cell assay for p-ERK (HTRF, Advance ERK phospho-T202/Y204 kit); type: cell-based, human; conditions: Homo sapiens; AGS cells (KRAS G12D), 3 hrs with compound, inhibition of p-ERK level
In short: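 KRAS G12D AGS gastric cancer cells were plated overnight, then exposed 3 h to 3.16-fold compound dilutions at 0.1% DMSO final. Lysates were probed for ERK phospho-T202/Y204 by HTRF after 4 h. Inhibition relative to DMSO and blank was fitted by four-parameter regression for IC50.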

[1] = test system: AsPC-1 human pancreatic cancer cell with KRAS G12D mutation; assay: Cell proliferation inhibition experiment, 3D CellTiter-Glo, AsPC-1; type: cell-based; conditions: Homo sapiens, ASPC1, 120 h, AsPC-1 cells, 3D spheroid, 5 days
In short: (§1)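 3D spheroids (800 AsPC-1 or 400 AGS cells/well) established overnight, then treated with 3.16-fold compound dilutions (0.1% DMSO) for 5 days. Viability read by CellTiter-Glo 3D luminescence; inhibition normalised to DMSO and medium blank, IC50 by four-parameter fit.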

[2] = test system: AGS human gastric cancer cell line with KRAS G12D mutation; assay: Cell proliferation inhibition experiment, 3D CellTiter-Glo, AGS; type: cell-based; conditions: Homo sapiens, 120 h, AGS cells, 3D spheroid, 5 days
In short: as §1

in vivo = conditions: male, CD-1, mouse, po, 30 mg/kg
Protocol: Test objective: Male CD-1 mice were used as test animals. The drug concentrations in plasma of mice at various times were determined by LC/MS/MS after intravenous and oral administration of the test compounds. The pharmacokinetic behavior of the test compounds in mice was studied and their pharmacokinetic characteristics were evaluated.
Test methods: test animals: 60 healthy adult male CD-1 mice, aged 6-8 weeks and weighing about 30 g, and divided into 10 groups, including IV groups (intravenous injection group, five groups), with 6 mice in each group; and PO groups (oral administration group, five groups), with 6 mice in each group.
Preparation of drug solution: IV group: Taking 10 mL sample solution as an example, 2 mg sample was weighed, 0.5 mL DMSO and 1 mL Solutol HS 15 were sequentially added, and then 8.5 mL 6% HP-β-CD was added, and stirred ultrasonically to obtain a clear solution of 0.2 mg/mL.
PO group 1: Taking 10 mL sample solution as an example, 10 mg sample was weighed, 0.5 mL DMSO and 1 mL Solutol HS 15 were sequentially added, and then 8.5 mL 6% HP-β-CD was added, and stirred ultrasonically to obtain a 1 mg/mL solution.
PO group 2: A 3 mg/mL solution of the sample was prepared according to the preparation method for PO group 1.
Administration: After overnight fasting, the mice in the IV group were administered with a volume of 5 mL/kg at a dose of 1 mg/kg.
PO group 1: The mice were administered with a volume of 10 mL/kg at a dose of 10 mg/kg.
PO group 2: The mice were administered with a volume of 10 mL/kg at a dose of 30 mg/kg.
Experimental operations: Male CD-1 mice in the intravenous injection group and oral administration group were given the test compound, respectively. After that, 50 μl of blood was periodically collected into a K2EDTA anticoagulation tube at 0.0833, 0.25, 0.5, 1, 2, 4, 6, 8 and 24 hrs, and the plasma was separated by centrifugation at 4° C. and 8000 rpm for 15 min. The plasma was stored in dry ice at −80° C. 4 hrs after administration, the animals were allowed to free access to food. The contents of the test compounds in plasma of mice after intravenous and oral administration were determined by LC/MS/MS. The linear range of the method was 1-3000 ng/ml. The plasma samples were treated with acetonitrile to precipitate the protein and then analyzed.

## C[C@@H]1Oc2nc(-c3cc(N)cc(Cl)c3C(F)(F)F)c(F)c3nc(OC[C@@]45CCCN4CC(=C(F)F)C5)nc(c23)N2C[C@H]3CC[C@H](N3)[C@@H]12 [Z1084, 3-chloro-5-((5S,5aS,6S,9R)-12-(((S)-2-(difluoromethylene)tetrahydro-1H-pyrrolizin-7a(5H)-yl)methoxy)-1-fluoro-5-methyl-5a,6,7,8,9,10-hexahydro-5H-4-oxa-3,10a,11,13,14-pentaaza-6,9-methanonaphtho[1,8-ab]hepten-2-yl)-4-(trifluoromethyl) aniline]
AGS p-ERK
  IC50: 120 pM
[1]
  IC50: 1230 pM
[2]
  IC50: 380 pM
In vivo
  AUC(0-t): 2440 ng·h/mL
  bioavailability: 20.7%
